Test results as given in the supplement of paper PMC10307832.

Experiments:
Test in all cases: relative viability (nuclei count vs DMSO), 5 days (fraction); higher = more cells survive
Dactolisib + Decitabine = compound: Cn1c(=O)n(-c2ccc(C(C)(C)C#N)cc2)c2c3cc(-c4cnc5ccccc5c4)ccc3ncc21 [Dactolisib] + Nc1ncn([C@H]2C[C@H](O)[C@@H](CO)O2)c(=O)n1 [Decitabine] (partner 2 µM)
Method in brief: (§1)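 Nuclei were stained with Hoechst during a one-step fixation (final 0.05% Triton X-100, 1% formaldehyde, 1 ug/ml Hoechst) carried out 5 days after dosing, then counted on 4× images. The cells, lung cancer lines in 1536-well plates, had been dosed by pin tool the day after seeding with one drug alone or a fixed anchor-drug dose plus five library-drug doses (not always all listed) in √10 steps. Relative viability is the nuclei count in treated wells divided by that in vehicle wells, and each value is the median of duplicate plates.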

Dactolisib + OSI-027 = compound: Cn1c(=O)n(-c2ccc(C(C)(C)C#N)cc2)c2c3cc(-c4cnc5ccccc5c4)ccc3ncc21 [Dactolisib] + COc1cccc2cc(-c3nc([C@H]4CC[C@H](C(=O)O)CC4)n4ncnc(N)c34)[nH]c12 [OSI-027] (partner 0.5 µM)
Method in brief: as §1

Dactolisib + Olaparib = compound: Cn1c(=O)n(-c2ccc(C(C)(C)C#N)cc2)c2c3cc(-c4cnc5ccccc5c4)ccc3ncc21 [Dactolisib] + O=C(c1cc(Cc2n[nH]c(=O)c3ccccc23)ccc1F)N1CCN(C(=O)C2CC2)CC1 [Olaparib] (partner 8 µM)
Method in brief: as §1

AZ505 + Pemetrexed = compound: C1CCC(CC1)N(CCNCCC2=C3C(=C(C=C2)O)NC(=O)CO3)C(=O)CCNCCC4=CC(=C(C=C4)Cl)Cl [AZ505] + Nc1nc2[nH]cc(CCc3ccc(C(=O)N[C@@H](CCC(=O)O)C(=O)O)cc3)c2c(=O)[nH]1 [Pemetrexed] (partner 0.2 µM)
Method in brief: as §1

| Cell Line | relative viability (Dactolisib + Decitabine; first compound 0.002 µM) | relative viability (Dactolisib + Decitabine; first compound 0.006325 µM) | relative viability (Dactolisib + Decitabine; first compound 0.02 µM) | relative viability (Dactolisib + Decitabine; first compound 0.06325 µM) | relative viability (Dactolisib + Decitabine; first compound 0.2 µM) | relative viability (Dactolisib + OSI-027; first compound 0.002 µM) | relative viability (Dactolisib + OSI-027; first compound 0.006325 µM) | relative viability (Dactolisib + OSI-027; first compound 0.02 µM) | relative viability (Dactolisib + OSI-027; first compound 0.06325 µM) | relative viability (Dactolisib + OSI-027; first compound 0.2 µM) | relative viability (Dactolisib + Olaparib; first compound 0.002 µM) | relative viability (Dactolisib + Olaparib; first compound 0.006325 µM) | relative viability (Dactolisib + Olaparib; first compound 0.02 µM) | relative viability (Dactolisib + Olaparib; first compound 0.06325 µM) | relative viability (Dactolisib + Olaparib; first compound 0.2 µM) | relative viability (AZ505 + Pemetrexed; first compound 0.08 µM) | relative viability (AZ505 + Pemetrexed; first compound 0.253 µM) | relative viability (AZ505 + Pemetrexed; first compound 0.8 µM) | relative viability (AZ505 + Pemetrexed; first compound 2.53 µM) | relative viability (AZ505 + Pemetrexed; first compound 8 µM) |
| --- | --- | --- | --- | --- | --- | --- | --- | --- | --- | --- | --- | --- | --- | --- | --- | --- | --- | --- | --- | --- |
| NCI-H3122 | 0.376 | 0.369 | 0.415 | 0.284 | 0.304 | 0.903 | 0.976 | 0.948 | 0.739 | 0.373 | 0.564 | 0.557 | 0.659 | 0.629 | 0.641 | 0.196 | 0.197 | 0.196 | 0.201 | 0.199 |
| NCI-H460 | 0.612 | 0.461 | 0.504 | 0.252 | 0.134 | 0.829 | 0.661 | 0.615 | 0.119 | 0.153 | 0.256 | 0.45 | 0.423 | 0.341 | 0.335 | 0.063 | 0.0565 | 0.0644 | 0.0703 | 0.0621 |
| NCI-H650 | 0.488 | 0.27 | 0.364 | 0.282 | 0.302 | 0.509 | 0.518 | 0.641 | 0.592 | 0.372 | 0.552 | 0.378 | 0.437 | 0.312 | 0.195 | 0.86 | 0.875 | 1.01 | 1.12 | 0.881 |
| NCI-H661 | 0.574 | 0.532 | 0.501 | 0.346 | 0.324 | 0.701 | 0.759 | 0.652 | 0.366 | 0.339 | 0.706 | 0.656 | 0.771 | 0.504 | 0.434 | 0.834 | 0.928 | 0.865 | 0.931 | 0.928 |
| NCI-H1793 | 0.454 | 0.319 | 0.266 | 0.231 | 0.172 | 0.317 | 0.26 | 0.257 | 0.212 | 0.157 | 0.784 | 0.299 | 0.254 | 0.18 | 0.169 | 0.863 | 0.756 | 0.878 | 0.851 | 1.06 |
| NCI-H1734 | 0.542 | 0.491 | 0.478 | 0.341 | 0.259 | 0.561 | 0.594 | 0.562 | 0.313 | 0.247 | 0.644 | 0.548 | 0.471 | 0.405 | 0.266 | 0.405 | 0.351 | 0.392 | 0.398 | 0.416 |
| LXF-289 | 0.455 | 0.4 | 0.388 | 0.357 | 0.399 | 0.93 | 0.865 | 0.821 | 0.692 | 0.684 | 1.21 | 0.986 | 1 | 0.973 | 0.695 | 0.84 | 0.92 | 0.785 | 0.932 | 0.903 |
| H3255 | 0.671 | 0.614 | 0.559 | 0.511 | 0.415 | 0.724 | 0.469 | 0.623 | 0.609 | 0.488 | 0.559 | 0.56 | 0.499 | 0.475 | 0.399 | 0.521 | 0.556 | 0.602 | 0.571 | 0.616 |
| 201T | 0.87 | 0.864 | 0.808 | 0.706 | 0.477 | 0.715 | 0.749 | 0.682 | 0.747 | 0.509 | 0.833 | 0.824 | 0.849 | 0.782 | 0.54 | 0.343 | 0.342 | 0.403 | 0.345 | 0.31 |
| NCI-H2126 | 0.645 | 0.663 | 0.55 | 0.462 | 0.416 | 0.92 | 0.733 | 0.687 | 0.618 | 0.458 | 0.975 | 0.895 | 0.878 | 0.514 | 0.44 | 0.58 | 0.628 | 0.719 | 0.713 | 0.629 |
| HOP-62 | 0.287 | 0.238 | 0.215 | 0.275 | 0.22 | 0.986 | 0.881 | 0.728 | 0.611 | 0.492 | 0.378 | 0.464 | 0.542 | 0.298 | 0.36 | 0.325 | 0.443 | 0.327 | 0.393 | 0.379 |
| NCI-H520 | 0.527 | 0.476 | 0.456 | 0.206 | 0.156 | 0.285 | 0.303 | 0.308 | 0.204 | 0.189 | 0.328 | 0.308 | 0.284 | 0.144 | 0.128 | 0.483 | 0.684 | 0.777 | 0.81 | 0.875 |
| NCI-H1755 | 0.87 | 0.768 | 0.766 | 0.673 | 0.536 | 0.821 | 0.772 | 0.8 | 0.683 | 0.542 | 0.987 | 0.886 | 0.86 | 0.733 | 0.476 | 0.474 | 0.452 | 0.402 | 0.44 | 0.461 |
| NCI-H2023 | 0.224 | 0.225 | 0.218 | 0.115 | 0.0931 | 0.412 | 0.357 | 0.344 | 0.15 | 0.108 | 0.484 | 0.43 | 0.281 | 0.122 | 0.0803 | 0.219 | 0.221 | 0.244 | 0.221 | 0.244 |
| NCI-H2009 | 0.381 | 0.373 | 0.362 | 0.34 | 0.268 | 0.74 | 0.659 | 0.754 | 0.404 | 0.266 | 0.656 | 0.692 | 0.65 | 0.759 | 0.312 | 1.05 | 1.01 | 0.984 | 1.06 | 1.01 |
